Patent publication US20160136246A1, “Novel Uses of GLP-1 Receptor Agonists in Patients Treated with Insulin and/or Suffering from Type 1 Diabetes” (NOVO NORDISK A/S, priority 2013, published 2016)

Key:
[1] = test system: adults with type 1 diabetes; assay: Stepwise hypoglycaemic clamp at the end of each treatment period; type: in vivo, human
Experimental: A stepwise hypoglycaemic clamp was performed at the end of each treatment period via controlled i.v. insulin/glucose infusion (FIG. 5). The successive plasma glucose (PG) levels were 5.5, 3.5, 2.5 mmol/L (nadir), and 4.0 mmol/L (recovery). Counterregulatory hormones (glucagon, adrenalin, noradrenalin, cortisol, and growth hormone) and vital signs (pulse, blood pressure) were measured at each successive PG level during the clamp. Glucose infusion rate was also assessed.

[2] = test system: adults with type 1 diabetes; assay: Randomised, double-blind crossover trial of liraglutide adjunct to insulin, 4 weeks of treatment: glycaemic control and safety; type: in vivo, human; conditions: for Asymptomatic hypoglycaemic episodes, N = number of subjects / Asymptomatic hypoglycaemic episodes, percentage of subjects / Documented symptomatic hypoglycaemic episodes, N = number of subjects / Documented symptomatic hypoglycaemic episodes, percentage of subjects / Probable symptomatic hypoglycaemic episodes, E = number of events / Probable symptomatic hypoglycaemic episodes, N = number of subjects / Probable symptomatic hypoglycaemic episodes, percentage of subjects / Severe hypoglycaemic episodes, E = number of events / Severe hypoglycaemic episodes, N = number of subjects / Severe hypoglycaemic episodes, percentage of subjects / Total ADA classified hypoglycaemic episodes, E = number of events / Total ADA classified hypoglycaemic episodes, N = number of subjects / Total ADA classified hypoglycaemic episodes, percentage of subjects: during treatment
Experimental: Subjects received target dose for a minimum of 2 weeks.
After 4 weeks of treatment, estimated treatment differences in insulin dose, HbA1c, pulse and body weight were assessed. Hypoglycaemia and hypoglycaemic episodes and overall safety parameters were assessed throughout the treatment period.
Hypoglycaemia and/or hypoglycaemic episodes were defined and assessed according to the ADA Hypoglycaemic Classification (FIG. 3).

[3] = 0.6 mg liraglutide, during the trial
[4] = 1.2 mg liraglutide, during the trial
[5] = 1.8 mg liraglutide, during the trial

## CCCCCCCCCCCCCCCC(=O)N[C@@H](CCC(=O)NCCCC[C@H](NC(=O)[C@H](C)NC(=O)[C@H](C)NC(=O)[C@H](CCC(N)=O)NC(=O)CNC(=O)[C@H](CCC(=O)O)NC(=O)[C@H](CC(C)C)NC(=O)[C@H](Cc1ccc(O)cc1)NC(=O)[C@H](CO)NC(=O)[C@H](CO)NC(=O)[C@@H](NC(=O)[C@H](CC(=O)O)NC(=O)[C@H](CO)NC(=O)[C@@H](NC(=O)[C@H](Cc1ccccc1)NC(=O)[C@@H](NC(=O)CNC(=O)[C@H](CCC(=O)O)NC(=O)[C@H](C)NC(=O)[C@@H](N)Cc1cnc[nH]1)[C@@H](C)O)[C@@H](C)O)C(C)C)C(=O)N[C@@H](CCC(=O)O)C(=O)N[C@@H](Cc1ccccc1)C(=O)N[C@H](C(=O)N[C@@H](C)C(=O)N[C@@H](Cc1c[nH]c2ccccc12)C(=O)N[C@@H](CC(C)C)C(=O)N[C@H](C(=O)N[C@@H](CCCNC(=N)N)C(=O)NCC(=O)N[C@@H](CCCNC(=N)N)C(=O)NCC(=O)O)C(C)C)[C@@H](C)CC)C(=O)O [liraglutide]
[1]; 0.6 mg group vs placebo
  Change in pulse from plasma glucose […] to nadir, estimated treatment difference: 0.6 BPM
[1]; 1.2 mg group vs placebo
  Change in pulse from plasma glucose […] to nadir, estimated treatment difference: 2.3 BPM
[1]; 1.8 mg group vs placebo
  Change in pulse from plasma glucose […] to nadir, estimated treatment difference: −3.4 BPM
[1]; all plasma glucose levels, all liraglutide doses
  Pulse compared to placebo: significantly higher
[1]; during hypoglycaemic clamp
  Other counterregulatory hormones to hypoglycaemia, liraglutide vs placebo: no systematic differences
  Systolic and diastolic blood pressure, liraglutide vs placebo: no systematic differences
[2]; [3]
  AEs leading to withdrawal, E = number of events: 1
  AEs leading to withdrawal, N = number of subjects: 1
  AEs leading to withdrawal, percentage of subjects: 6.7%
  Abdominal distention, E = number of events: 1
  Abdominal distention, N = number of subjects: 1
  Abdominal distention, percentage of subjects: 6.7%
  Abdominal pain (N % E, given as a single 0): 0/0
  Adverse events, total number of events, E = number of events: 27
  Adverse events, total number of events, N = number of subjects: 12
  Adverse events, total number of events, percentage of subjects: 80.0%
  Diarrhea (N % E, given as a single 0): 0/
  Dyspepsia (N % E, given as a single 0): 0/0
  Flatulence, E = number of events: 1
  Flatulence, N = number of subjects: 1
  Flatulence, percentage of subjects: 6.7%
  Nausea, E = number of events: 8
  Nausea, N = number of subjects: 8
  Nausea, percentage of subjects: 53.3%
  Regurgitation, E = number of events: 1
  Regurgitation, N = number of subjects: 1
  Regurgitation, percentage of subjects: 6.7%
  Serious AEs (N % E, given as a single 0): 0/0
  Total number of GI AEs, E = number of events: 12
  Total number of GI AEs, N = number of subjects: 10
  Total number of GI AEs, percentage of subjects: 66.7%
  Upper abdominal pain (N % E, given as a single 0): 0/0
  Vomiting, E = number of events: 1
  Vomiting, N = number of subjects: 1
  Vomiting, percentage of subjects: 6.7%
[2]; 0.6 mg liraglutide
  Asymptomatic hypoglycaemic episodes, N = number of subjects: 12
  Asymptomatic hypoglycaemic episodes, percentage of subjects: 80.0%
  Documented symptomatic hypoglycaemic episodes, N = number of subjects: 13
  Documented symptomatic hypoglycaemic episodes, percentage of subjects: 86.7%
  Probable symptomatic hypoglycaemic episodes, E = number of events: 3
  Probable symptomatic hypoglycaemic episodes, N = number of subjects: 1
  Probable symptomatic hypoglycaemic episodes, percentage of subjects: 6.7%
  Severe hypoglycaemic episodes, E = number of events: 0 (0) 0/
  Severe hypoglycaemic episodes, N = number of subjects: 0 (0) 0/
  Severe hypoglycaemic episodes, percentage of subjects: 0 (0) 0/ %
  Total ADA classified hypoglycaemic episodes, E = number of events: 289
  Total ADA classified hypoglycaemic episodes, N = number of subjects: 14
  Total ADA classified hypoglycaemic episodes, percentage of subjects: 93.3%
[2]; [4]
  AEs leading to withdrawal, E = number of events: 1
  AEs leading to withdrawal, N = number of subjects: 1
  AEs leading to withdrawal, percentage of subjects: 7.1%
  Abdominal distention, E = number of events: 3
  Abdominal distention, N = number of subjects: 3
  Abdominal distention, percentage of subjects: 21.4%
  Abdominal pain, E = number of events: 1
  Abdominal pain, N = number of subjects: 1
  Abdominal pain, percentage of subjects: 7.1%
  Adverse events, total number of events, E = number of events: 45
  Adverse events, total number of events, N = number of subjects: 14
  Adverse events, total number of events, percentage of subjects: 100%
  Diarrhea, E = number of events: 1
  Diarrhea, N = number of subjects: 1
  Diarrhea, percentage of subjects: 7.1%
  Dyspepsia, E = number of events: 1
  Dyspepsia, N = number of subjects: 1
  Dyspepsia, percentage of subjects: 7.1%
  Flatulence, E = number of events: 1
  Flatulence, N = number of subjects: 1
  Flatulence, percentage of subjects: 7.1%
  Nausea, E = number of events: 14
  Nausea, N = number of subjects: 11
  Nausea, percentage of subjects: 78.6%
  Regurgitation, E = number of events: 2
  Regurgitation, N = number of subjects: 2
  Regurgitation, percentage of subjects: 14.3%
  Serious AEs (N % E, given as a single 0): 0/0
  Total number of GI AEs, E = number of events: 24
  Total number of GI AEs, N = number of subjects: 12
  Total number of GI AEs, percentage of subjects: 85.7%
  Upper abdominal pain (N % E, given as a single 0): 0/0
  Vomiting, E = number of events: 1
  Vomiting, N = number of subjects: 1
  Vomiting, percentage of subjects: 7.1%
[2]; 1.2 mg liraglutide
  Asymptomatic hypoglycaemic episodes, N = number of subjects: 10
  Asymptomatic hypoglycaemic episodes, percentage of subjects: 71.4%
  Documented symptomatic hypoglycaemic episodes, N = number of subjects: 12
  Documented symptomatic hypoglycaemic episodes, percentage of subjects: 85.7%
  Probable symptomatic hypoglycaemic episodes, E = number of events: 1
  Probable symptomatic hypoglycaemic episodes, N = number of subjects: 1
  Probable symptomatic hypoglycaemic episodes, percentage of subjects: 7.1%
  Severe hypoglycaemic episodes, E = number of events: 0 (0) 0/
  Severe hypoglycaemic episodes, N = number of subjects: 0 (0) 0/
  Severe hypoglycaemic episodes, percentage of subjects: 0 (0) 0/ %
  Total ADA classified hypoglycaemic episodes, E = number of events: 263
  Total ADA classified hypoglycaemic episodes, N = number of subjects: 13
  Total ADA classified hypoglycaemic episodes, percentage of subjects: 92.9%
[2]; [5]
  AEs leading to withdrawal, E = number of events: 1
  AEs leading to withdrawal, N = number of subjects: 1
  AEs leading to withdrawal, percentage of subjects: 7.1%
  Abdominal distention, E = number of events: 5
  Abdominal distention, N = number of subjects: 5
  Abdominal distention, percentage of subjects: 35.7%
  Abdominal pain (N % E, given as a single 0): 0/
  Adverse events, total number of events, E = number of events: 54
  Adverse events, total number of events, N = number of subjects: 13
  Adverse events, total number of events, percentage of subjects: 92.9%
  Diarrhea, E = number of events: 5
  Diarrhea, N = number of subjects: 5
  Diarrhea, percentage of subjects: 35.7%
  Dyspepsia, E = number of events: 1
  Dyspepsia, N = number of subjects: 1
  Dyspepsia, percentage of subjects: 7.1%
  Flatulence (N % E, given as a single 0): 0/0
  Nausea, E = number of events: 13
  Nausea, N = number of subjects: 11
  Nausea, percentage of subjects: 78.6%
  Regurgitation, E = number of events: 1
  Regurgitation, N = number of subjects: 1
  Regurgitation, percentage of subjects: 7.1%
  Serious AEs (N % E, given as a single 0): 0/0
  Total number of GI AEs, E = number of events: 31
  Total number of GI AEs, N = number of subjects: 13
  Total number of GI AEs, percentage of subjects: 92.9%
  Upper abdominal pain, E = number of events: 2
  Upper abdominal pain, N = number of subjects: 2
  Upper abdominal pain, percentage of subjects: 14.3%
  Vomiting, E = number of events: 4
  Vomiting, N = number of subjects: 3
  Vomiting, percentage of subjects: 21.4%
[2]; 1.8 mg liraglutide
  Asymptomatic hypoglycaemic episodes, N = number of subjects: 13
  Asymptomatic hypoglycaemic episodes, percentage of subjects: 92.9%
  Documented symptomatic hypoglycaemic episodes, N = number of subjects: 14
  Documented symptomatic hypoglycaemic episodes, percentage of subjects: 100%
  Probable symptomatic hypoglycaemic episodes, E = number of events: 4
  Probable symptomatic hypoglycaemic episodes, N = number of subjects: 1
  Probable symptomatic hypoglycaemic episodes, percentage of subjects: 7.1%
  Severe hypoglycaemic episodes, E = number of events: 0 (0) 0/
  Severe hypoglycaemic episodes, N = number of subjects: 0 (0) 0/
  Severe hypoglycaemic episodes, percentage of subjects: 0 (0) 0/ %
  Total ADA classified hypoglycaemic episodes, E = number of events: 316
  Total ADA classified hypoglycaemic episodes, N = number of subjects: 14
  Total ADA classified hypoglycaemic episodes, percentage of subjects: 100%
[2]; during liraglutide treatment
  Number of adverse events (AEs) compared to placebo: higher
[2]; liraglutide adjunct to insulin
  Gastrointestinal (GI) AEs compared to placebo: more
  Number of hypoglycaemias or overall number of hypoglycaemic episodes (ADA classification): did not affect
  Severity of GI AEs: mild or moderate
[2]; short-term trial, subjects with type 1 diabetes
  Safety or tolerability issues: No unexpected liraglutide-related safety or tolerability issues
